The values that follow come from US4205077A, “Benzimidazole sulphides as anthelmintic agents” (Ciba-Geigy Corporation, priority 1977, dated 1980).

Bounds are passed on as bounds.

One data set is described as follows: in vivo. The note with it: rat, po.
Another data set can be described thus: Acute toxicity in rats. Particulars: rat, in vivo, topical or ocular.
Data set [1] in a line: Acute toxicity in rabbits. Particulars: rabbit, in vivo, oral.

In the case of `S=c1[nH]c2cc(Cl)c(Oc3ccc(Cl)cc3Cl)cc2[nH]1` [Example 1/2, 5-chloro-6-(2',4'-dichlorophenoxy)-2H-1,3-dihydro-benzimidazole-2-thione], the LD50 (usually the dose expected to kill half of the subjects tested) in the data set “in vivo” was 3100 mg/kg; in “Acute toxicity in rats”, above 3000 mg/kg; in data set [1], above 6000 mg/kg.
